Results taken from article PMC4593646, “The Cyclooctadepsipeptide Anthelmintic Emodepside Differentially Modulates Nematode, Insect and Human Calcium-Activated Potassium (SLO) Channel Alpha Subunits” (PLoS Neglected Tropical Diseases, 2015).

Key:
Drosophila Slo (Dm Slo) = target: T1, Drosophila Slo (Dm Slo) (Drosophila melanogaster, UniProt Q03720); assay: whole cell voltage clamp, CHO cells stably expressing Dm Slo, dose-response; type: cell-based
T1 construct: alpha subunit, stably expressed in CHO cells

[1] = target: T2, human KCNMA1 (hum KCNMA1) (Homo sapiens, UniProt Q12791); assay: whole cell patch clamp, transfected HEK293 cells; transient facilitation then inhibition at […]; type: cell-based
T2 construct: KCNMA1 variant 2/isoform b (NP_002238), expressed in HEK293 cells
T2 sequence (Q12791 whole entry, canonical isoform): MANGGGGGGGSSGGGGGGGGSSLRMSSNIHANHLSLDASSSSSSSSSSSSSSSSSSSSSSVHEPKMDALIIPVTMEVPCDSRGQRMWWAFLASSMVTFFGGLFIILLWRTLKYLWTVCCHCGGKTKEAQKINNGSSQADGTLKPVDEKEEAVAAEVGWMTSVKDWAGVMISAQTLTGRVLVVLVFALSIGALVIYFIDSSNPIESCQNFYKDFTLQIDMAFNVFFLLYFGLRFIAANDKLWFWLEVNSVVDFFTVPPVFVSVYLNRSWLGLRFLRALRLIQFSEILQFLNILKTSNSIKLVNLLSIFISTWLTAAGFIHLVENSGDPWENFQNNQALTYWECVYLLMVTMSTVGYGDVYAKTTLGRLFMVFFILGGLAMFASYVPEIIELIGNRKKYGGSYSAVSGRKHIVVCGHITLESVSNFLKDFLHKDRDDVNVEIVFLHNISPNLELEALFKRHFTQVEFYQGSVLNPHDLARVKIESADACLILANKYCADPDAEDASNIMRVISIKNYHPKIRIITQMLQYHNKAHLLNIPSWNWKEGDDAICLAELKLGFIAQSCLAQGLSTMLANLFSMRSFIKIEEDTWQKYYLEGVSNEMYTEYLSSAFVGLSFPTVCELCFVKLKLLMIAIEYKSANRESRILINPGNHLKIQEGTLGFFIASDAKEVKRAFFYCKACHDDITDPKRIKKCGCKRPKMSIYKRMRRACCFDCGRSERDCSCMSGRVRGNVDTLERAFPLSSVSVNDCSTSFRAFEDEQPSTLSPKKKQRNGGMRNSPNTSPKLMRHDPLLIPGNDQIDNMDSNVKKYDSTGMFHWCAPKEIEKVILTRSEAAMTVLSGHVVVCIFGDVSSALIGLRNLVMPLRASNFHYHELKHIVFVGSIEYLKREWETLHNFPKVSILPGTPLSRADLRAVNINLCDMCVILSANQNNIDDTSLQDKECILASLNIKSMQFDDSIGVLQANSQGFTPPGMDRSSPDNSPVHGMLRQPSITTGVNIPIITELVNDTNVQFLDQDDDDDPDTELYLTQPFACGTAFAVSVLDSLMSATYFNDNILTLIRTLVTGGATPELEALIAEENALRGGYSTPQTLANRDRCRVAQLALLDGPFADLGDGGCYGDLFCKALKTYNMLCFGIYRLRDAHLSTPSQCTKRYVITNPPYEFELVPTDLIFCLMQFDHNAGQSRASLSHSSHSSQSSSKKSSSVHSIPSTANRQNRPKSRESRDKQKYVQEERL

T1 sequence (Q03720 whole entry): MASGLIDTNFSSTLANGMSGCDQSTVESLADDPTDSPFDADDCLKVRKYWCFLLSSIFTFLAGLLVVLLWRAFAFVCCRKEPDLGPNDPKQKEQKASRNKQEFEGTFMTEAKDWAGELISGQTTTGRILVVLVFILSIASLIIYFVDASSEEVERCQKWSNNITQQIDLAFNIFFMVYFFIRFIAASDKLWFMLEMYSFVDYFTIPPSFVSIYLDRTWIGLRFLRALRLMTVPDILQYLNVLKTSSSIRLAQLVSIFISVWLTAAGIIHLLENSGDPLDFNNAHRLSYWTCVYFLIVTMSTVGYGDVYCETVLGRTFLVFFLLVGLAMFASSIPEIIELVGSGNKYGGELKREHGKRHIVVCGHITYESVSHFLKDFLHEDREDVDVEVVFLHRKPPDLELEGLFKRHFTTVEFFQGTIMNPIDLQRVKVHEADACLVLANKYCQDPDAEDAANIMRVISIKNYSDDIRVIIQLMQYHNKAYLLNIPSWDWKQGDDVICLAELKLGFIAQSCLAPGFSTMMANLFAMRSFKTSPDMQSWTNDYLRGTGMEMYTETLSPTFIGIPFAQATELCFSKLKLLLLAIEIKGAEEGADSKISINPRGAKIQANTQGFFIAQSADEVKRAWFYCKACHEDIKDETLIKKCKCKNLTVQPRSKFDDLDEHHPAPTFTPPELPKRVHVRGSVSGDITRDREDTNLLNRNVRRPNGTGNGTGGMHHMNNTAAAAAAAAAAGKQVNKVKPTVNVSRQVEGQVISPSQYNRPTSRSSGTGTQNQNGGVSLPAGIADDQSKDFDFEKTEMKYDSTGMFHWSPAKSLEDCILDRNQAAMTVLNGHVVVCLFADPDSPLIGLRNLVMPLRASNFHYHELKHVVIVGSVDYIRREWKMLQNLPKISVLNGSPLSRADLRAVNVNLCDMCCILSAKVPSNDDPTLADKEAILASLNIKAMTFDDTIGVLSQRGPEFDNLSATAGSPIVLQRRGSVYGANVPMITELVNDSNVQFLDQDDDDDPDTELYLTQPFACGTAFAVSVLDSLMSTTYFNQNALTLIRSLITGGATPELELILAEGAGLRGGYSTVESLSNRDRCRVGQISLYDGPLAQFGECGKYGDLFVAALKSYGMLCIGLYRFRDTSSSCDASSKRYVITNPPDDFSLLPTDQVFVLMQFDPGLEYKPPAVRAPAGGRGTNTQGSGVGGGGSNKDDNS

SMILES	IC50 (Drosophila Slo (Dm Slo)) [nM]	whole cell patch clamp, transfected HEK293 cells; transient facilitation then in [1]
C=C(C)[C@H]1O[C@H]2CC[C@@]3(C)[C@@](O)(CC[C@H]4[C@@H]5OC(C)(C)[C@H]6C[C@@H]7C(=C)Cc8c(Cl)cc9[nH]c(c5c9c8[C@@]76O)[C@@]43C)[C@@]23O[C@H]3[C@H]1O [penitrem A]	0.5	
COc1ccc2c3c4n(c2c1)[C@H](C=C(C)C)OOC(C)(C)C[C@@H]4N1C(=O)[C@@H]2CCCN2C(=O)[C@]1(O)[C@H]3O [verruculogen]	6.2	
CC(C)C[C@H]1C(=O)O[C@H](Cc2ccc(N3CCOCC3)cc2)C(=O)N(C)[C@@H](CC(C)C)C(=O)O[C@H](C)C(=O)N(C)[C@@H](CC(C)C)C(=O)O[C@H](Cc2ccc(N3CCOCC3)cc2)C(=O)N(C)[C@@H](CC(C)C)C(=O)O[C@H](C)C(=O)N1C [emodepside]		In HEK293 cells expressing KCNMA1 emodepside elicited a biphasic, concentration-dependent effect on current amplitude
